Experimental data reported in PMC8398255, “Synthesis of 3,5-Bis(trifluoromethyl)phenyl-Substituted Pyrazole Derivatives as Potent Growth Inhibitors of Drug-Resistant Bacteria” (Molecules, 2021).
≈ marks a conversion by molar mass, not a printed value.

Legend:
[1] = test system: Bacillus subtilis ATCC 6623 (Bs); test: MIC, microdilution (CLSI); type: cell-based; conditions: ATCC6623; Bs, Bacillus subtilis ATCC 6623; n = 3; read-out: MIC
Experimental: (§1) Compounds were dissolved in dimethyl sulfoxide (DMSO) to achieve a starting concentration of 32 µg/mL as described by us previously. Compounds were further diluted two-fold across the 96-well honeycomb plate columns in cation adjusted Mueller Hinton broth (CAMHB), and bacterial culture was added. Plates were incubated for 18–20 h at 35 ℃ before determining the minimum concentrations at which wells had no visible turbidity to the naked eye. The MIC values were determined from at least a duplicate result obtained from three independent experiments using fresh bacterial cultures on different days.

[2] = test system: E. faecalis ATCC 29212 (Ef12); test: MIC, microdilution (CLSI); type: cell-based; conditions: Enterococcus faecalis, ATCC29212; Ef12, antibiotic susceptible E. faecalis ATCC 29212; n = 3; read-out: MIC
Experimental: as §1

[3] = test system: E. faecalis ATCC 51299 (Ef99); test: MIC, microdilution (CLSI); type: cell-based; conditions: Enterococcus faecalis, ATCC 51299 / VRE; Ef99, vancomycin-resistant (VRE) E. faecalis ATCC 51299; n = 3; read-out: MIC
Experimental: as §1

[4] = test system: E. faecium ATCC 700221 (Ef21); test: MIC, microdilution (CLSI); type: cell-based; conditions: Enterococcus faecium, ATCC 700221 / VRE; Ef21, vancomycin-resistant (VRE) E. faecium ATCC 700221; n = 3; read-out: MIC
Experimental: as §1

[5] = test system: S. aureus ATCC 25923 (Sa23); test: MIC, microdilution (CLSI); type: cell-based; conditions: Staphylococcus aureus, ATCC25923; Sa23, antibiotic susceptible S. aureus ATCC 25923; n = 3; read-out: MIC
Experimental: as §1

[6] = test system: S. aureus ATCC 33591 (Sa91); test: MIC, microdilution (CLSI); type: cell-based; conditions: Staphylococcus aureus, ATCC33591; Sa91, methicillin-resistant S. aureus ATCC 33591; n = 3; read-out: MIC
Experimental: as §1

[7] = test system: S. aureus ATCC 33592 (Sa92); test: MIC, microdilution (CLSI); type: cell-based; conditions: Staphylococcus aureus, ATCC33592; Sa92, methicillin-resistant S. aureus ATCC 33592; n = 3; read-out: MIC
Experimental: as §1

[8] = test system: S. aureus ATCC 700699 (Sa99); test: MIC, microdilution (CLSI); type: cell-based; conditions: Staphylococcus aureus, ATCC700699; Sa99, methicillin-resistant S. aureus ATCC 700699; n = 3; read-out: MIC
Experimental: as §1

[9] = test system: S. aureus BAA-2312 (Sa12); test: MIC, microdilution (CLSI); type: cell-based; conditions: Staphylococcus aureus, BAA2312; Sa12, methicillin-resistant S. aureus BAA-2312; n = 3; read-out: MIC
Experimental: as §1

[10] = test system: S. epidermidis ATCC 700296 (Se); test: MIC, microdilution (CLSI); type: cell-based; conditions: Staphylococcus epidermidis, ATCC700296; Se, S. epidermidis ATCC 700296; n = 3; read-out: MIC
Experimental: as §1

[11] = test system: S. aureus biofilms (Sa23); test: Biofilm eradication (MBEC), Calgary Biofilm Device; type: cell-based, Staphylococcus aureus
Experimental: (§2) Minimum biofilm eradication concentration (MBEC) was determined using a Calgary device using the protocol reported elsewhere with some modifications. The Calgary device is a 96-well plate with a lid containing pegs to establish biofilms. Bacteria from an overnight plate culture were suspended to a 0.5 McFarland turbidity, then diluted 1:100 in a CAMHB containing 1% glucose which was inoculated in the 96 wells (150 μL in each well) and incubated at 35 °C for 24 h to establish biofilm on the pegs. The lid was then removed, washed with PBS in a fresh 96 well plate, then transferred to another 96-well plate containing 2-fold serial dilutions of the test compounds dissolved in PBS (150 μL total volume in each well). This plate was called the “challenge plate”. The challenge plate was incubated for an additional 24 h, and the lid was transferred to the next 96-well plate containing fresh CAMHB media with 1% glucose (180 μL) and further incubated for 24 h. […] All the compounds were tested in a minimum of three independent experiments.

[12] = test system: E. faecalis biofilms (Efs12); test: Biofilm eradication (MBEC), Calgary Biofilm Device; type: cell-based
Experimental: as §2

[13] = Cytotoxicity assay (resazurin); type: cell-based; conditions: human, HEK-293 cells, 24 h treatment, n = 3
Experimental: The human embryonic kidney cell line (HEK-293) was used to assess the cytotoxicity of the antibiotics as described by us previously. HEK-293 cells were cultured in Dulbecco’s modified eagle’s medium (DMEM) containing 10% Fetal Bovine Serum (FBS) and incubated at 37 °C in the presence of 5% carbon dioxide. HEK-293 cells were cultured in 96-well black plates with 6000 cells per well for the first 24 h followed by treatment with a range of concentrations of antibiotics dissolved in DMSO for the next 24 h. After the second period of incubation, resazurin (40 µL of 0.15 mg/mL) was added to each well and incubated for an additional 4 h. Reduction of resazurin was measured fluorometrically with excitation wavelength at 560 nm and emission at 590 nm using BioTek™ Cytation™5 plate reader. Percentage viability of HEK cells for each range of concentrations was calculated, taking the fluorescence value of the wells treated with DMSO as a reference, using Microsoft® Excel® for Office 365 MSO. IC50 values were computed using the calculated percentage viability values through data processing in Graphpad Prism 7 for Windows, Version 7.04.

[14] = test system: S. aureus ATCC 700699 persisters; test: Persister viability assay; type: cell-based, Staphylococcus aureus; conditions: 32× MIC, 4 h; for activity against persisters: S. aureus ATCC 700699 persisters
Experimental: (§3) The persister assay was performed following the methodology described previously. Briefly, for persister viability assays, S. aureus ATCC 700699 strain (MRSA) was grown to stationary phase in CAMHB medium by shaking at 200 rpm in a shaking incubator for 24 h at 35 °C. […] After incubation, 400 µL aliquot was washed, serially diluted in PBS, and plated in blood agar plate for viable colony count.

[15] = test system: Gram-positive bacteria; test: MIC across the tested strains; type: cell-based; conditions: against several bacterial strains
Experimental: as §1

[16] = test system: S. aureus and E. faecalis biofilms; test: Biofilm eradication, S. aureus and E. faecalis; type: cell-based
Experimental: as §2

[17] = test system: MRSA persisters (S. aureus ATCC 700699); test: Persister Time Kill Assay; type: cell-based, Staphylococcus aureus
Experimental: as §3
Likewise, for persister time-kill assays, the persister cells were treated at varied concentrations and incubated with shaking. At the start and every 2 h until 8 h, 400 µL samples were washed, serially diluted, and plated on blood agar using the 6 × 6 drop plate method. Plates were incubated for 18–20 h at 35 °C, before the colonies were counted to calculate CFU/mL. All the treatments were performed in triplicates.

SMILES	MIC [1] [µg/mL]	MIC [2] [µg/mL]	MIC [3] [µg/mL]	MIC [4] [µg/mL]	MIC [5] [µg/mL]	MIC [6] [µg/mL]	MIC [7] [µg/mL]	MIC [8] [µg/mL]	MIC [9] [µg/mL]	MIC [10] [µg/mL]	MBEC [11] [µg/mL]	MBEC [12] [µg/mL]	IC50 at 24 h [13] [µg/mL]	activity against persisters [14]	MIC [15] [µg/mL]	biofilm eradication property [16]	reduction of the population of persisters compared to the positive controls [14] [log values]	decrease of persister cells ([17]; 2× MIC, 8 h) [log value]	persisters eradicated ([17]; within 8 h at all the 4× MIC, 8× MIC and 16× MIC concentrations)	MBEC values [16] [µg/mL]
O=C(O)c1ccc(-n2cc(CNc3ccc(Oc4ccccc4)cc3)c(-c3cc(C(F)(F)F)cc(C(F)(F)F)c3)n2)cc1 [Compound 5, 4-[3-[3,5-Bis(trifluoromethyl)phenyl]-4-[(4-phenoxyanilino)methyl]pyrazol-1-yl] benzoic acid]	2 (≈ 3.35 µM)	2 (≈ 3.35 µM)	1 (≈ 1.67 µM)	1 (≈ 1.67 µM)	1 (≈ 1.67 µM)	1 (≈ 1.67 µM)	1 (≈ 1.67 µM)	2 (≈ 3.35 µM)	2 (≈ 3.35 µM)	4 (≈ 6.69 µM)	>32	>32	9.15 (≈ 15.3 µM)	partial activity	1 (≈ 1.67 µM)	did not show any appreciable biofilm eradication property				
O=C(O)c1ccc(-n2cc(CNc3ccc(Br)cc3)c(-c3cc(C(F)(F)F)cc(C(F)(F)F)c3)n2)cc1 [Compound 11, 4-[3-[3,5-Bis(trifluoromethyl)phenyl]-4-[(4-bromoanilino)methyl]pyrazol-1-yl] benzoic acid]	1 (≈ 1.71 µM)	2 (≈ 3.42 µM)	1 (≈ 1.71 µM)	1 (≈ 1.71 µM)	2 (≈ 3.42 µM)	1 (≈ 1.71 µM)	1 (≈ 1.71 µM)	2 (≈ 3.42 µM)	1 (≈ 1.71 µM)	2 (≈ 3.42 µM)		4	7 to 8 (≈ 12 to 13.7 µM)	very effective			4	1	more than 3 log values	
O=C(O)c1ccc(-n2cc(CNc3cc(Cl)c(F)c(Cl)c3)c(-c3cc(C(F)(F)F)cc(C(F)(F)F)c3)n2)cc1 [Compound 28, 4-[3-[3,5-Bis(trifluoromethyl)phenyl]-4-[(3,5-dichloro-4-fluoro-anilino)methyl]pyraz-ol-1-yl] benzoic acid]	1 (≈ 1.69 µM)	2 (≈ 3.38 µM)	2 (≈ 3.38 µM)	1 (≈ 1.69 µM)	1 (≈ 1.69 µM)	1 (≈ 1.69 µM)	1 (≈ 1.69 µM)	1 (≈ 1.69 µM)	1 (≈ 1.69 µM)	2 (≈ 3.38 µM)		2	7 to 8 (≈ 11.8 to 13.5 µM)	very effective						≥ 1
